According to patent US11382925B2, “Agent for treating retinal disease” (CARNA HEALTH SUPPORT LTD., priority 2017, dated 2022):

Legend:
[1] = authorized minimum dosage amount; compared with canagliflozin; cited from earlier work
SGLT2 = target: T1, SGLT2 (Homo sapiens, UniProt P31639); settings: cited from earlier work
T1 sequence (P31639 1-672): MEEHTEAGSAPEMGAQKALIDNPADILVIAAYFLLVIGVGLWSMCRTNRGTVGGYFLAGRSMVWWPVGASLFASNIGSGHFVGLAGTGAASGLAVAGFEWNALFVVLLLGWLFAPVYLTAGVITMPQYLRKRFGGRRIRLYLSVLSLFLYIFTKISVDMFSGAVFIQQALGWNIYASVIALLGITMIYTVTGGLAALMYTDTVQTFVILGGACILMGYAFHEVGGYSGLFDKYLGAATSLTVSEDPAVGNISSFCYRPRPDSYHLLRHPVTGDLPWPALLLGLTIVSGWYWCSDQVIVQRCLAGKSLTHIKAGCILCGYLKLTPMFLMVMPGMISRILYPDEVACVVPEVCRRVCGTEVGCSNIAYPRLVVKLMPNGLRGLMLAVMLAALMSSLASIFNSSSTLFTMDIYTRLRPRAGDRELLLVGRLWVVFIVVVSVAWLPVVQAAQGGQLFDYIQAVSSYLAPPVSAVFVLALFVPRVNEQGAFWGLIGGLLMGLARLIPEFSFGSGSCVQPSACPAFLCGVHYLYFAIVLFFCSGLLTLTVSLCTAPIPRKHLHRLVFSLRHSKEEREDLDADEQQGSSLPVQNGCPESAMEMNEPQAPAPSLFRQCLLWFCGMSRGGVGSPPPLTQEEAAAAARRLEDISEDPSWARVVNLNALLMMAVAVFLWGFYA

[2] = Preliminary test: body weight, blood sugar and urinal sugar in light-irradiated age-related maculopathy mouse model; assay type: in vivo, BALB/c mice; settings: AMD mouse; for change in body weight as compared to when not administering ipragliflozin: light irradiation 8000 lux 10 hours, bred one week
Description: (§1) To BALB/c mice, light irradiation (8000 lux, 10 hours) was performed, and then the mice were bred for one week. The existing SGLT2 inhibitor agent ipragliflozin was orally administered in an amount of 0.03 mg/kg/day and 0.1 mg/kg/day for four days including the day of light irradiation. The effects on body weight and blood sugar were confirmed. These models are widely used as age-related maculopathy models.
FIGS. 1 and 2 show the results of body weight and blood sugar levels when administering the existing SGLT2 inhibitor agent ipragliflozin at 0.03 mg/kg/day and 0.1 mg/kg/day.

[3] = tested on: retina of an age-related maculopathy mouse model; test: Hematoxylin-Eosin staining of retina, thickness of outer granular layer, in age-related maculopathy mouse model; assay type: in vivo, BALB/c mice; settings: vs non-administered AMD mouse
Description: FIG. 4 is a graph showing the thickness of outer granular layer (including visual cells) of the retina of an age-related maculopathy mouse model in numeral terms. […] “***” represents P<0.005 vs control mouse, “#” and “##” each represents P<0.05 vs Ipragliflozin non-administered AMD mouse, and P<0.01 vs Ipragliflozin non-administered AMD mouse, respectively.
as §1

[4] = 0.03 mg/kg/day orally for four days
[5] = 0.1 mg/kg/day orally for four days

Row | SMILES | maximum blood concentration (Cmax) in the minimum dosage amount, relative to that of canagliflozin [1] | IC50 level showing the inhibition activity, compared with canagliflozin (SGLT2) | further results
1 | OC[C@H]1O[C@@H](c2ccc(Cl)c(Cc3ccc(O[C@H]4CCOC4)cc3)c2)[C@H](O)[C@@H](O)[C@@H]1O [empagliflozin] | approximately 1/10 | similar | –
2 | O=C(O)[C@@H]1CCCN1.OC[C@H]1O[C@@H](c2ccc(F)c(Cc3cc4ccccc4s3)c2)[C@H](O)[C@@H](O)[C@@H]1O [ipragliflozin L-proline] | similar | similar | –
3 | OC[C@H]1O[C@@H](c2ccc(F)c(Cc3cc4ccccc4s3)c2)[C@H](O)[C@@H](O)[C@@H]1O [ipragliflozin] | – | – | change in urinal sugar as compared to when not administering ipragliflozin ([2]; 0.03 mg/kg/day and 0.1 mg/kg/day orally for four days): no change was observed; change in blood sugar as compared to when not administering ipragliflozin [2, 4]: no change was observed; change in body weight as compared to when not administering ipragliflozin [2, 4]: no change was observed; change in blood sugar as compared to when not administering ipragliflozin [2, 5]: no change was observed; change in body weight as compared to when not administering ipragliflozin [2, 5]: no change was observed; thinning of membrane shown in retina of AMD mouse (thickness of outer granular layer) ([3]; 0.03 mg/kg/day orally): significantly ameliorated; thinning of membrane shown in retina of AMD mouse (thickness of outer granular layer) ([3]; 0.1 mg/kg/day orally): significantly ameliorated
4 | CCOc1ccc(Cc2cc([C@@H]3S[C@H](CO)[C@@H](O)[C@H](O)[C@H]3O)c(OC)cc2C)cc1 [luseogliflozin hydrate] | approximately 1/10 | similar | –
5 | CCc1ccc(Cc2ccc3c(c2)[C@]2(OC3)O[C@H](CO)[C@@H](O)[C@H](O)[C@H]2O)cc1 [tofogliflozin hydrates, tofogliflozin hydrate] | approximately 1/10 | similar | –
